From US20250320246A1, “3-AZASTEROID COMPOUNDS FOR THE TREATMENT OF DISEASES RELATED TO MITROCHONDRIAL FUNCTION” (NZP UK LIMITED, priority 2022, published 2025)

Test system: sporadic PD patient fibroblasts
Test: Cellular ATP levels in sporadic PD patient fibroblasts, Preliminary ATP assay
Format: cell-based, human
Conditions: for activity at 0.1 µM / activity at 1 µM: Homo sapiens, Fibroblast; for activity at 0.1 µM: read-out: Average ATP Response 100 nM; for activity at 1 µM: read-out: Average ATP Response 1 μM
Experimental: In some cases, a preliminary ATP protocol was used in which EC50 was not determined. The preliminary ATP protocol is generally as described in Mortiboys et al 2008. Briefly, fibroblasts were cultured and plated into white, clear-bottom 384 well plates at a concentration of 4000 cells per well in 50 μl of media volume. The plates are left overnight in an incubator to allow the fibroblasts to adhere to the plate surface. The following morning the Glucose based medium is replaced with 25 μl of Galactose based medium. The cells were then dosed with 100 nM and 1 μM concentrations of the compounds using a ECHO 550 liquid handling system. After dosing the wells are topped up with a further 25 μl of Galactose based medium and then left in an incubator for 24 hours. Following this incubation, the medium is removed from the plate and the wells are washed twice with sterile PBS. The wells are filled with 20 μl of Sterile PBS followed by 10 μl of Lysis solution from the ATPlite™ Luminescence ATP detection assay system (Perkin Elmer), including 14 cell free wells to use as blank controls. The plate is then placed on a rotary shaker for 10 mins at 700 rpm. Following the shaking 10 μl of ATP substrate solution (Perkin Elmer) is added to each well and a further 5 min of shaking. The plate is then incubated in the dark for 10 minutes prior to reading. Using a FLUOstar® Omega plate reader, luminescence intensity is recorded. Following the ATP assay the plates are immediately assayed for DNA content in a CyQUANT® assay.
Immediately following The ATP assay DNA content is assessed with the CyQUANT® NF Cell Proliferation Assay Kit (ThermoFisher). CyQUANT® buffer is prepared immediately before the assay and is comprised of 2 μl CyQUANT® dye per ml×1 HBSS solution. 10 μl of CyQUANT® buffer is added to each well. Cell plates were then incubated for 1 hour before being read on a FLUOStar® Plate reader with excitation at 497 nm and emission at 520 nm.
The ATP Quantification for each well is determined as set out above.

[1] = 100 nM, 24 h, % of vehicle treated sPD fibroblasts, 3 sporadic PD patients
[2] = 1 μM, 24 h, % of vehicle treated sPD fibroblasts, 3 sporadic PD patients

| Compound | activity at 0.1 µM [1] | activity at 1 µM [2] | ATP production relative to control levels (100 nM) | Average ATP Response 100 nM [1] | Average ATP Response 1 μM [2] |
| --- | --- | --- | --- | --- | --- |
| C[C@H](CCCC(=O)NCCS(=O)(=O)O)[C@H]1CC[C@H]2[C@@H]3[C@@H](O)C[C@@H]4CNCC[C@]4(C)[C@H]3CC[C@]12C [Compound 72b, N-(3-Aza-7β-hydroxy-25-homo-5β-cholan-25-amide)-ethylsulfonic acid] | 102% | 112% | – | – | – |
| CC(CC(=O)O)NC(=O)CCC[C@@H](C)[C@H]1CC[C@H]2[C@@H]3[C@@H](O)C[C@@H]4CNCC[C@]4(C)[C@H]3CC[C@]12C (stereo partly drawn) [Compound 74b, N-(3-Aza-7β-hydroxy-25-homo-5β-cholan-25-oyl)-3-aminobutanoic acid] | 103% | 98.5% | – | – | – |
| C[C@H](CCC(=O)N[C@@H](COC(C)(C)C)C(=O)O)[C@H]1CC[C@H]2[C@@H]3[C@@H](O)C[C@@H]4CN(C)CC[C@]4(C)[C@H]3CC[C@]12C [Compound 53a, N-(3-Methyl-aza-7β-hydroxy-5β-cholan-24-oyl)-(2S)-2-amino-3-[(2-methylpropan-2-yl)oxy]propanoic acid] | 109% | 102% | – | – | – |
| C[C@H](CCC(=O)N1CC2(COC2)C1)[C@H]1CC[C@H]2[C@@H]3[C@@H](O)C[C@@H]4CN(C(=O)OCc5ccccc5)CC[C@]4(C)[C@H]3CC[C@]12C [Compound 78a, N-{(benzyloxycarbonyl)-3-aza-7β-hydroxy-5β-cholan-24-oyl}-2-oxa-6-azospiro{3,3}heptane] | 121% | 120% | – | – | – |
| C[C@H](CCC(=O)NCC(=O)O)[C@H]1CC[C@H]2[C@@H]3[C@@H](O)C[C@@H]4CNCC[C@]4(C)[C@H]3CC[C@]12C [Compound 52a, N-(3-Aza-7β-hydroxy-5β-cholan-24-amide)-acetic acid] | 106% | 110% | – | – | – |
| C[C@H](CCC(=O)N1CCC(=O)CC1)[C@H]1CC[C@H]2[C@@H]3[C@@H](O)C[C@@H]4CN(C(=O)OCc5ccccc5)CC[C@]4(C)[C@H]3CC[C@]12C [Compound 79a, N-{(benzyloxycarbonyl)-3-aza-7β-hydroxy-5β-cholan-24-oyl}-4-piperidone] | 116% | 122% | – | – | – |
| C[C@H](CCC(=O)NCCC(=O)O)[C@H]1CC[C@H]2[C@@H]3[C@@H](O)C[C@@H]4CNCC[C@]4(C)[C@H]3CC[C@]12C [Compound 62a, N-(3-Aza-7β-hydroxy-5β-cholan-24-amide)-propanoic acid] | 108% | 108% | – | – | – |
| C[C@H](CCCC(=O)NC1CCOC1)[C@H]1CC[C@H]2[C@@H]3[C@@H](O)C[C@@H]4CN(C(=O)OCc5ccccc5)CC[C@]4(C)[C@H]3CC[C@]12C (stereo partly drawn) [Compound 80b, N-{(benzyloxycarbonyl)-3-aza-7β-hydroxy-25-homo-5β-cholan-25-oyl}-3-aminotetrahydrofuran] | 122% | 120% | – | – | – |
| CC(C)C[C@H](NC(=O)CCC[C@@H](C)[C@H]1CC[C@H]2[C@@H]3[C@@H](O)C[C@@H]4CNCC[C@]4(C)[C@H]3CC[C@]12C)C(=O)O [Compound 75b, N-(3-Aza-7β-hydroxy-25-homo-5β-cholan-25-oyl)-(S)-2-amino-4-methylpentanoic acid] | 112% | 106% | – | – | – |
| C[C@H](CCC(=O)N(C1CCCCC1)C1CCCCC1)[C@H]1CC[C@H]2[C@@H]3[C@@H](O)C[C@@H]4CN(C)CC[C@]4(C)[C@H]3CC[C@]12C [Compound 59a, N-(Cyclohexyl)-N-(3-methyl-aza-7β-hydroxy-5β-cholan-24-oyl)-cyclohexanamine] | 106% | 99.7% | – | – | – |
| C[C@H](NC(=O)CC[C@@H](C)[C@H]1CC[C@H]2[C@@H]3[C@@H](O)C[C@@H]4CNCC[C@]4(C)[C@H]3CC[C@]12C)C(=O)O [Compound 68a, N-(3-Aza-7β-hydroxy-5β-cholan-24-oyl)-(S)-2-aminopropanoic acid] | 109% | 99% | – | – | – |
| C[C@H](CCC(=O)N[C@H](CC(=O)O)c1ccccc1)[C@H]1CC[C@H]2[C@@H]3[C@@H](O)C[C@@H]4CN(C)CC[C@]4(C)[C@H]3CC[C@]12C [Compound 54a, N-(3-Methyl-aza-7β-hydroxy-5β-cholan-24-oyl)-(R)-3-amino-3-phenylpropanoic acid] | 109% | 107% | – | – | – |
| CC(C)[C@H](NC(=O)CC[C@@H](C)[C@H]1CC[C@H]2[C@@H]3[C@@H](O)C[C@@H]4CNCC[C@]4(C)[C@H]3CC[C@]12C)C(=O)O [Compound 65a, N-(3-Aza-7β-hydroxy-5β-cholan-24-oyl)-(S)-2-amino-3-methylbutanoic acid] | 111% | 108% | – | – | – |
| C[C@H](CCCC(=O)N[C@@H](Cc1ccc(O)cc1)C(=O)O)[C@H]1CC[C@H]2[C@@H]3[C@@H](O)C[C@@H]4CNCC[C@]4(C)[C@H]3CC[C@]12C [Compound 77b, N-(3-Aza-7β-hydroxy-25-homo-5β-cholan-25-oyl)-(2S)-2-amino-3-(4-hydroxyphenyl)propanoic acid] | 109% | 113% | – | – | – |
| C[C@H](CCCC(=O)NCCCC[C@H](N)C(=O)O)[C@H]1CC[C@H]2[C@@H]3[C@@H](O)C[C@@H]4CNCC[C@]4(C)[C@H]3CC[C@]12C [Compound 76b, N-(3-Aza-7β-hydroxy-25-homo-5β-cholan-25-oyl)-(2S)-2,6-diaminohexanoic acid] | 105% | 106% | – | – | – |
| S-(3-Aza-7β-hydroxy-5β-cholan-24-oyl)-phenylmethanethiol [Compound 64a] | – | – | returning ATP production to control levels | 118.2% | 111.4% |
| C[C@H](CCCC(=O)O)[C@H]1CC[C@H]2[C@@H]3[C@@H](O)C[C@@H]4CN(C(=O)OCc5ccccc5)CC[C@]4(C)[C@H]3CC[C@]12C [Compound 50b, N-(benzyloxycarbonyl)-3-aza-7β-hydroxy-24-homo-5β-cholan-25-oic acid] | 101% | 99.8% | – | – | – |
| C[C@H](CCC(=O)Nc1ccc(F)cc1)[C@H]1CC[C@H]2[C@@H]3[C@@H](O)C[C@@H]4CN(C)CC[C@]4(C)[C@H]3CC[C@]12C [Compound 55a, N-(3-Methyl-aza-7β-hydroxy-5β-cholan-24-oyl)-1-amino-4-fluorobenzene] | 110% | 109% | – | – | – |
| C[C@H](CCC(=O)N(C)CC(=O)O)[C@H]1CC[C@H]2[C@@H]3[C@@H](O)C[C@@H]4CNCC[C@]4(C)[C@H]3CC[C@]12C [Compound 67a, N-Methyl-N-(3-aza-7β-hydroxy-5β-cholan-24-oyl)-glycine] | 108% | 107% | – | – | – |
| C[C@H](CCC(=O)N1Cc2ccccc2C1)[C@H]1CC[C@H]2[C@@H]3[C@@H](O)C[C@@H]4CNCC[C@]4(C)[C@H]3CC[C@]12C [Compound 81a] | 94.2% | 102% | – | – | – |
| C[C@H](CCC(=O)NCC(F)C(=O)O)[C@H]1CC[C@H]2[C@@H]3[C@@H](O)C[C@@H]4CNCC[C@]4(C)[C@H]3CC[C@]12C (stereo partly drawn) [Compound 58a, N-(3-Aza-7β-hydroxy-5β-cholan-24-oyl)-3-amino-2-fluoropropanoic acid] | 102% | 103% | – | – | – |
| C[C@H](CCC(=O)N1CCOCC1)[C@H]1CC[C@H]2[C@@H]3[C@@H](O)C[C@@H]4CNCC[C@]4(C)[C@H]3CC[C@]12C [Compound 56a, N-(3-Aza-7β-hydroxy-5β-cholan-24-oyl)-morpholine] | 109% | 100% | – | – | – |
| CC[C@H](C)[C@H](NC(=O)CC[C@@H](C)[C@H]1CC[C@H]2[C@@H]3[C@@H](O)C[C@@H]4CNCC[C@]4(C)[C@H]3CC[C@]12C)C(=O)O [Compound 66a, N-(3-Aza-7β-hydroxy-5β-cholan-24-oyl)-(2S,3S)-2-amino-3-methylpentanoic acid] | 109% | 111% | – | – | – |
